These results are taken from publication PMC6269737, “Effect of Honokiol on Cytochrome P450 and UDP-Glucuronosyltransferase Enzyme Activities in Human Liver Microsomes” (Molecules, 2013).

One data set addresses CYP3A4 (Homo sapiens, UniProt P08684). As to the kind of experiment: biochemical. Conditions: IC50 (μM) of honokiol, Midazolam 1'-hydroxylation. The procedure:
The inhibitory potential (IC50 values) of honokiol on CYP activities was evaluated in pooled human liver microsomes using liquid chromatography-tandem mass spectrometry (LC-MS/MS). […] Honokiol was dissolved in acetonitrile. […] […] The reaction was then stopped by placement of the tubes on ice and adding 100 μL of ice-cold methanol containing internal standards (^13C2, ^15N-acetaminophen for acetaminophen and N-deethylamodiaquine, and d9-1-hydroxybufuralol for 4-hydroxydiclofenac, 4-hydroxybupropion, 7-hydroxycoumarin, 4-hydroxymephenytoin, 1'-hydroxybufuralol, and 1'-hydroxymidazolam). The incubation mixtures were then centrifuged at 13,000 × g for 4 min. All incubations were performed in triplicate, and average values were used.
(§1) The reaction was initiated by the addition of the cocktail containing seven CYP probe substrates and bupropion.
The metabolites formed from the seven CYP cocktail substrates were simultaneously determined according to our previously described LC-MS/MS method with minor modification; the concentration of 4-hydroxybupropion for CYP2B6 activity was quantified separately by LC-MS/MS. A tandem mass spectrometer (TSQ Quantum Access, Thermo Scientific, San Jose, CA, USA) coupled with a Nanospace SI-2 LC system (Tokyo, Japan) was used. […] Quantification was performed by selected reaction monitoring (SRM) of [M+H]^+ ions and the related product ions for each metabolite. […]

The target of a further data set is T1, UGT1A9 (Homo sapiens, UniProt O60656).
T1 sequence (O60656 26-530): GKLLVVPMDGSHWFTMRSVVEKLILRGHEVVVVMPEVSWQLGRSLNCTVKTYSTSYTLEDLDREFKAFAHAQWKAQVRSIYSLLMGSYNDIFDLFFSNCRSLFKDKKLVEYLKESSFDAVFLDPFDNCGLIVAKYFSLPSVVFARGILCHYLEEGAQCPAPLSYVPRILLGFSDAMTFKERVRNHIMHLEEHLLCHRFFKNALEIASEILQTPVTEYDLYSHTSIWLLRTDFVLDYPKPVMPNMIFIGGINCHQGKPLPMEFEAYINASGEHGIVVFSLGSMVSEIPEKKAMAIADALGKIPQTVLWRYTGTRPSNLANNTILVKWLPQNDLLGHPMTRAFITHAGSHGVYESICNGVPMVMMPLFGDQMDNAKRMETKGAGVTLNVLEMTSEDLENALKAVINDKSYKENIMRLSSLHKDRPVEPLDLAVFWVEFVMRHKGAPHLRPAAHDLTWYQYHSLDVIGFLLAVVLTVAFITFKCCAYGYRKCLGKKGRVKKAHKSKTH
As to the kind of experiment: UGT1A9-catalyzed propofol glucuronidation inhibition in pooled human liver microsomes. In kind it is in vitro ADME. Conditions: pooled HLM (H161). On the procedure: The inhibitory potency (IC50 value) of honokiol on UGT1A1-catalyzed 17β-estradiol 3-glucuronidation, UGT1A4-catalyzed trifluoperazine glucuronidation, UGT1A9-catalyzed propofol glucuronidation, and UGT2B7-catalyzed azidothymidine glucuronidation activities was determined in pooled human liver microsomes by LC-MS/MS [48]. […] Reactions were initiated by the addition of UDPGA (final concentration, 5 mM), and incubations were carried out at 37 °C in a shaking water bath for 30 min. Reactions were terminated by adding 100 μL of ice-cold methanol containing an internal standard (500 ng/mL ezetimibe for 17β-estradiol 3-glucuronide and propofol glucuronide; 30 ng/mL meloxicam for trifluoperazine glucuronide and azidothymidine glucuronide). The incubation mixtures were then centrifuged at 13,000 × g for 4 min, followed by dilution of 30 μL of the supernatant with 70 μL of water. An aliquot (5 μL) was injected onto the LC-MS/MS. All incubations were performed in triplicate and the mean values were used. Glucuronides produced from UGT isoform-specific substrates were determined by LC-MS/MS [49].
The incubation mixtures were then centrifuged at 13,000 × g for 4 min, after which 30 μL of the supernatant was diluted with 70 μL of water. Aliquots (5 μL) were then analyzed by LC-MS/MS.
(§2) The apparent kinetic parameters for inhibitory potential (Ki values) were estimated from the fitted curves using Enzyme Kinetics Ver. 1.1 software (Systat Software Inc.).

Another data set deals with CYP2C19 (Homo sapiens, UniProt P33261). As to the kind of experiment: biochemical. The following applies: for IC50: IC50 (μM) of honokiol, S-Mephenytoin 4'-hydroxylation. On the procedure:
The inhibitory potential (IC50 values) of honokiol on CYP activities was evaluated in pooled human liver microsomes using liquid chromatography-tandem mass spectrometry (LC-MS/MS). […] Honokiol was dissolved in acetonitrile. […] After a 3 min preincubation at 37 °C, the reactions were initiated by addition of an NADP generating system and incubated for 15 min at 37 °C in a shaking water bath. The reaction was then stopped by placement of the tubes on ice and adding 100 μL of ice-cold methanol containing internal standards (^13C2, ^15N-acetaminophen for acetaminophen and N-deethylamodiaquine, and d9-1-hydroxybufuralol for 4-hydroxydiclofenac, 4-hydroxybupropion, 7-hydroxycoumarin, 4-hydroxymephenytoin, 1'-hydroxybufuralol, and 1'-hydroxymidazolam). The incubation mixtures were then centrifuged at 13,000 × g for 4 min. All incubations were performed in triplicate, and average values were used.
as §1
The metabolites formed from the seven CYP cocktail substrates were simultaneously determined according to our previously described LC-MS/MS method with minor modification; the concentration of 4-hydroxybupropion for CYP2B6 activity was quantified separately by LC-MS/MS. A tandem mass spectrometer (TSQ Quantum Access, Thermo Scientific, San Jose, CA, USA) coupled with a Nanospace SI-2 LC system (Tokyo, Japan) was used. The column and autosampler temperatures were 50 °C and 6 °C, respectively. The mass spectrometer was equipped with an electrospray ionization (ESI) source and operated in positive ion mode. The ESI source settings for ionization of the metabolites were as follows: capillary voltage, 4200 V; vaporizer temperature, 350 °C; capillary temperature 330 °C; sheath gas pressure, 35 psi; auxiliary gas pressure, 15 psi. Quantification was performed by selected reaction monitoring (SRM) of [M+H]^+ ions and the related product ions for each metabolite. […] Analytical data were processed using Xcalibur® software (Thermo Scientific).
The incubation mixtures were centrifuged at 13,000 × g for 4 min, and the supernatants were diluted as follows: dilution of 20 μL supernatant with 180 μL of 25% methanol for CYP2C8; dilution of 50 μL supernatant with 50 μL of water for CYP2C9, CYP2C19, CYP2D6, and CYP1A2; and dilution of 20 μL supernatant with 80 μL of water for CYP2B6. Aliquots (5 μL) of the diluted supernatants were then analyzed by LC-MS/MS.
as §2

The mark [1] stands for this setting: with preincubation, 30 min preincubation with NADPH.

Chain of CYP2C19 (P33261 whole entry): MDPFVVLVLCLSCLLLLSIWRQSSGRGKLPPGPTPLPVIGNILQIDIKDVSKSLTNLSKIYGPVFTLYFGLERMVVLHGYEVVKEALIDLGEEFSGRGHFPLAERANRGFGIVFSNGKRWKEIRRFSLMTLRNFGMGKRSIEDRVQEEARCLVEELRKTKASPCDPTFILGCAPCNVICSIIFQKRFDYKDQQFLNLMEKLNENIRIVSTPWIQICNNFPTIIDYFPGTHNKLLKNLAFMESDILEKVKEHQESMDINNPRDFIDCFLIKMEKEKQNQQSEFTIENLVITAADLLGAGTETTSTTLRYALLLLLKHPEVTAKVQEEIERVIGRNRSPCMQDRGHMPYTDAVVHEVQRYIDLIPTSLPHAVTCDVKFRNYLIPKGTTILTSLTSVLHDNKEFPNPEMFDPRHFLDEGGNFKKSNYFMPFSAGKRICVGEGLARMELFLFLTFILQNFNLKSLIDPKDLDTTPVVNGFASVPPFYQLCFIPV
Chain of CYP3A4 (P08684 2-503): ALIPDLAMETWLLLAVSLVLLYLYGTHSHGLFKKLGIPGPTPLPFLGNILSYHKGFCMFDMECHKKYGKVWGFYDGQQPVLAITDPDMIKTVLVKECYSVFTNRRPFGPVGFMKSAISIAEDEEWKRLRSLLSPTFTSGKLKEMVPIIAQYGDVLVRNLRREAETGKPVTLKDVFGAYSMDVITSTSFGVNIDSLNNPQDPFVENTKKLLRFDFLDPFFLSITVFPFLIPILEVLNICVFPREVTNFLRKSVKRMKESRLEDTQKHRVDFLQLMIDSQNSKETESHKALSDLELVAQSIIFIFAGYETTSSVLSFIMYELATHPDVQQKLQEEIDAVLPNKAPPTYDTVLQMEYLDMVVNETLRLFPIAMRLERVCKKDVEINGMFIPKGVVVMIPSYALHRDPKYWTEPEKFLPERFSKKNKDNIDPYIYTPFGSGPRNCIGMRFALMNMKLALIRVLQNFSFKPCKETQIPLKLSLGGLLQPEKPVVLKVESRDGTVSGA

Consider `C=CCc1ccc(O)c(-c2ccc(O)c(CC=C)c2)c1` [honokiol, 2-(4-hydroxy-3-prop-2-enyl-phenyl)-4-prop-2-enyl-phenol], for which the IC50 against CYP3A4 (no preincubation, 2.5 μM midazolam, pooled HLM (H161)) was found to be 97.3 µM; on CYP3A4 (setting [1]), 45.8 µM; against UGT1A9 (propofol glucuronidation, 10 μM propofol), 0.98 µM; at CYP2C19 (no preincubation, 100 μM [S]-mephenytoin, pooled HLM (H161)) it was 2.2 µM; at CYP2C19 (setting [1]), 2.9 µM. In addition, the Ki at UGT1A9 (Propofol glucuronidation, 5–40 μM propofol) stood at 0.3 µM; at CYP2C19, 0.57 µM. Further, the Inhibition mode entry on UGT1A9 (Propofol glucuronidation) was “competitive”. The compound further came in with an IC50 at 30 min against UGT1A9 (human, pooled human liver microsomes, pH 7.4, probe propofol (10 μM), propofol glucuronidation, 10 μM propofol) of 0.96 µM.
